The source of these data is patent publication US20090143279A1 (priority 2007, published 2009).

Where two headings read alike, the source gives them in different places.

The subject of one assay is cytochrome c. The class given is cell-based, mouse.
The next assay relates to OXPHOS gene expression. The class given is cell-based, mouse.
A further assay deals with reactive oxygen species. The class given is cell-based, mouse.
Assay [1] has as its system mitochondrial membrane potential. The format is cell-based, mouse.
Assay [2] concerns cellular dehydrogenase activity.
The subject of a further assay is nuOXPHOS transcripts. The class given is cell-based, mouse.
For another assay, the system named is mtOXPHOS transcripts. The format is cell-based, mouse.
Where [3] appears, read: composite Z-score vs DMSO, Conc 20 μM.
Setting [4] is: composite Z-score vs DMSO wells, Conc 20 μM.
[5] abbreviates: composite Z-score vs DMSO, Conc 8 μM.
The mark [6] stands for this setting: Conc 20 μM, normalized score vs mock-treated (DMSO) wells.
Setting [7] is: 20 μM, composite Z-score vs DMSO.

Consider `Cc1cc(O)c(C=O)c(O)c1C(=O)O` [haematommic acid], for which the cyt c in the assay on cytochrome c (setting [3]) is on record as 0.631. Further, in the assay with OXPHOS gene expression (setting [3]), the GE-HTS is listed as −0.410. In the assay with reactive oxygen species (setting [3]), this compound had an ROS of −1.077. This compound registered a ΔΨm in assay [1] (setting [3]) of 0.002. This compound showed a Viability with C2C12 myotubes (setting [3]) of −0.412. For the same compound, the MTT in assay [2] (setting [3]) is recorded as −0.740. The nucOX in the assay with nuOXPHOS transcripts (setting [3]) is −0.078. In addition, the mitoOX in the assay with mtOXPHOS transcripts (setting [3]) was −1.067.

In the assay with cytochrome c (setting [3]), `CC1=C(CCC(=O)O)c2cc3[nH]c(cc4nc(cc5[nH]c(cc1n2)c(C)c5C(C)O)C(C)=C4C(C)O)c(C)c3CCC(=O)O` (stereo not drawn) [haematoporphyrin] showed a cyt c of 0.324. This compound yielded a GE-HTS in the assay on OXPHOS gene expression (setting [3]) of 0.309. Further, the ROS in the assay with reactive oxygen species (setting [3]) is 1.666. The compound further showed a ΔΨm in assay [1] (setting [3]) of −3.662. The Viability in the assay on C2C12 myotubes (setting [3]) is −1.933. For the same compound, the MTT in assay [2] (setting [3]) is −3.312. Also, the nucOX in the assay with nuOXPHOS transcripts (setting [3]) worked out at 0.251. Further, the mitoOX in the assay on mtOXPHOS transcripts (setting [3]) came to 0.416.

Compound `O=C(O)c1ccc(S(=O)(=O)N(Cl)Cl)cc1` [halazone] returned a cyt c with cytochrome c (setting [4]) of −0.942. The compound also returned a GE-HTS in the assay on OXPHOS gene expression (setting [4]) of 0.565. Besides, the ROS with reactive oxygen species (setting [4]) is listed as 0.779. Further, the ΔΨm in assay [1] (setting [4]) is given as −0.334. Also, in the assay on C2C12 myotubes (setting [4]), the Viability is recorded as −0.242. This compound also registered an MTT in assay [2] (setting [4]) of −0.445. The nucOX in the assay with nuOXPHOS transcripts (setting [4]) stood at 0.593. Further, the mitoOX with mtOXPHOS transcripts (setting [4]) amounted to 0.385.

In the assay with cytochrome c (setting [3]), `CC1(C)O[C@@H]2C[C@H]3[C@@H]4CCC5=CC(=O)CC[C@]5(C)[C@@]4(F)[C@@H](O)C[C@]3(C)[C@]2(C(=O)CCl)O1` [halcinonide] had a cyt c of −0.794. Moreover, the GE-HTS in the assay on OXPHOS gene expression (setting [3]) is recorded as 0.492. Besides, the ROS in the assay with reactive oxygen species (setting [3]) was 0.624. Further, in assay [1] (setting [3]), the ΔΨm is listed as 0.570. The Viability in the assay with C2C12 myotubes (setting [3]) is reported as 0.106. In addition, the MTT in assay [2] (setting [3]) is reported as −0.789. The same compound showed a nucOX in the assay with nuOXPHOS transcripts (setting [3]) of 0.284. For the same compound, the mitoOX in the assay with mtOXPHOS transcripts (setting [3]) is reported as 0.831.

The compound `CCCCN(CCCC)CCC(O)c1cc2c(Cl)cc(Cl)cc2c2cc(C(F)(F)F)ccc12` (stereo not drawn) [halofantrine] had a cyt c in the assay with cytochrome c (setting [5]) of −0.236. In addition, the GE-HTS with OXPHOS gene expression (setting [5]) is reported as −0.508. The ROS in the assay with reactive oxygen species (setting [5]) was determined as 0.012. In assay [1] (setting [5]), this compound displayed a ΔΨm of −0.668. The compound also returned a Viability with C2C12 myotubes (setting [5]) of 0.132. In addition, in assay [2] (setting [5]), the MTT is given as −0.174. For the same compound, the nucOX in the assay on nuOXPHOS transcripts (setting [5]) is −0.239. In the assay on mtOXPHOS transcripts (setting [5]), this compound came in with a mitoOX of −0.969.

As for `C[C@@H]1O[C@@H](O[C@H]2[C@H](O[C@H]3CC[C@@]4(C)[C@@H](CC[C@]5(C)[C@@H]4CC=C4[C@@H]6CC(C)(C)CC[C@]6(C(=O)O[C@@H]6O[C@H](CO[C@@H]7O[C@H](CO)[C@@H](O[C@@H]8O[C@@H](C)[C@H](O)[C@@H](O)[C@H]8O)[C@H](O)[C@H]7O)[C@@H](O)[C@H](O)[C@H]6O)CC[C@]45C)[C@]3(C)CO)OC[C@H](O)[C@@H]2O)[C@H](O)[C@H](O)[C@H]1O` [hederacoside C], the “cyt c (composite Z-score)” value with cytochrome c (setting [6]) was determined as 0.471. In the assay with OXPHOS gene expression (setting [6]), the “GE-HTS (composite Z-score)” value is listed as −0.809. In the assay with reactive oxygen species (setting [6]), the “ROS (composite Z-score)” value stood at 0.079. Also, in assay [1] (setting [6]), the “ΔΨm (composite Z-score)” value is listed as −0.559. The “Viability (composite Z-score)” value in the assay on C2C12 myotubes (setting [6]) is recorded as −0.672. In addition, in assay [2] (setting [6]), the “MTT (composite Z-score)” value is −1.226. The “nucOX (composite Z-score)” value with nuOXPHOS transcripts (setting [6]) is −0.645. The “mitoOX (composite Z-score)” value in the assay with mtOXPHOS transcripts (setting [6]) is on record as −0.952.

As for `CC1(C)CC[C@]2(C(=O)O)CC[C@]3(C)C(=CC[C@@H]4[C@@]5(C)CC[C@H](O)[C@@](C)(CO)[C@@H]5CC[C@]43C)[C@@H]2C1` [hederagenin], in the assay with cytochrome c, the cyt c worked out at 0.945. Also, in the assay with OXPHOS gene expression, the GE-HTS was −0.654. Besides, in the assay on reactive oxygen species, the ROS was found to be 0.385. In assay [1], this compound registered a ΔΨm of −0.901. This compound also displayed a Viability in the assay with C2C12 myotubes of 0.310. The compound further had an MTT in assay [2] of −1.259. For the same compound, the nucOX in the assay with nuOXPHOS transcripts was −0.630. The same compound had a mitoOX with mtOXPHOS transcripts of −0.540.

In the case of `C=C1C(=O)O[C@@H]2C[C@@]3(C)CCC[C@H](C)C3=C[C@H]12` [helenine], in the assay on cytochrome c (setting [3]), the cyt c was −5.312. For the same compound, the GE-HTS in the assay on OXPHOS gene expression (setting [3]) is −2.156. In the assay on reactive oxygen species (setting [3]), this compound showed an ROS of −2.409. Moreover, in assay [1] (setting [3]), the ΔΨm is given as −3.676. The Viability in the assay with C2C12 myotubes (setting [3]) is recorded as −4.599. The compound also had an MTT in assay [2] (setting [3]) of −6.498. In the assay with nuOXPHOS transcripts (setting [3]), this compound showed a nucOX of −2.240. In addition, the mitoOX with mtOXPHOS transcripts (setting [3]) is recorded as −1.624.

As to `COc1ccc([C@@H]2CC(=O)c3c(O)cc(O[C@@H]4O[C@H](CO[C@@H]5O[C@@H](C)[C@H](O)[C@@H](O)[C@H]5O)[C@@H](O)[C@H](O)[C@H]4O)cc3O2)cc1O` [hesperidin], the cyt c in the assay with cytochrome c (setting [7]) came to 0.621. This compound showed a GE-HTS with OXPHOS gene expression (setting [7]) of −0.618. Further, in the assay on reactive oxygen species (setting [7]), the ROS is given as −0.281. The ΔΨm in assay [1] (setting [7]) is on record as −0.251. In the assay with C2C12 myotubes (setting [7]), this compound yielded a Viability of 0.694. For the same compound, the MTT in assay [2] (setting [7]) was −0.992. In addition, the nucOX in the assay on nuOXPHOS transcripts (setting [7]) is reported as −0.106. Moreover, in the assay on mtOXPHOS transcripts (setting [7]), the mitoOX is recorded as −1.561.
